Key:
Format in all cases: cell-based, Human
TNF-α = TNF-α in culture supernatant of LPS-activated THP-1 cells (sandwich ELISA); settings: THP-1 cells pre-treated 2 h with compound, 1 μg/ml LPS, supernatant at 24 h, ELISA in duplicate
Protocol: The blocking effect of compounds on cytokines expression (FIG. 2) induced by LPS in monocytic cell lines was then assessed. THP-1 cells were pre-treated with compounds for 2 h and activated with 1 μg/ml LPS. Culture supernatants were collected in 24 h and the TNF-α concentrations were measured using sandwich ELISA. Measurements were done in duplicate. […] Therefore the compounds work to suppress inflammatory response and are potent anti-inflammatory compounds.

THP-1 cells = experiment: THP-1 cell viability, MTS assay; settings: THP-1 cells treated with the compound as in the MMP-9 test
Protocol: In panels B, D, F and H; THP-1 cells were treated with the compound in A, C, E and G, and cell viability was tested with MTS assay.

MMP-9 = MMP-9 expression in LPS-stimulated THP-1 cells (gelatin zymography); settings: THP-1 cells pre-treated 2 h with 5, 10 and 20 μg/ml compound, then 1 μg/ml LPS, supernatant at 24 h; MMP-2 internal control
Protocol: Several of the compounds were tested for pharmaceutical activity against two well known inflammatory mediators—MMP-9 and TNF-α. Compounds (1), (2), (3), and (4), were tested. An inflammatory reaction is stimulated with LPS and MMP-2 is used as an internal gene expression control.
The inhibitory effect of flavonoid glycoside compounds on MMP-9 expression (FIG. 1) was assayed in THP-1 cells stimulated with LPS. In panels A, C, E and G; THP-1 cells were pre-treated with 5, 10 and 20 μg/ml of the compound specified for 2 h. After pre-treatment with the relevant compound, the cells were then stimulated with 1 μg/ml LPS. The culture supernatants were collected 24 h after activation and subjected to substrate gel electrophoresis (gelatin zymography) and staining with Coomassie brilliant blue.

| SMILES | TNF-α production (TNF-α) | cell viability (THP-1 cells) | inhibition of MMP-9 expression (MMP-9) |
| --- | --- | --- | --- |
| C=C(CCC=C(C)C)CC/C=C(\C)CC(=O)OCC1OC(Oc2ccc3c(c2)OC(c2ccc(OC)c(OC)c2)CC3=O)C(O)C(O)C1O (stereo not drawn) [Compound (3)] | inhibited | no negative impact on cell viability | inhibits MMP-9 expression in a dose dependant manner |
| C/C=C(\C)[C@@H](CCC(C)CCCC(C)CCCC(C)C)OC1C(CO)OC(Oc2cc(O)c3c(=O)c(O)c(-c4ccc(OC)c(OC)c4)oc3c2)C(O)C1O (stereo partly drawn) [Compound (1), 3,5,7-trihydroxy-3′,4′-dimethoxyflavone-7β-D-glucopyranosyl(4″-13′″)2′″,6′″,10′″,14′″-tetramethyl hexadec-14-ene] | inhibited | no negative impact on cell viability | inhibits MMP-9 expression in a dose dependant manner |
| CCC(C)C(CCC(C)CCCC(C)CCCC(C)C)OC1(CO)COC(COc2c(-c3ccc(OC)cc3)oc3cc(O)cc(O)c3c2=O)C(O)C1O [Compound (2), 3,5,7-trihydroxy-4′-methoxyflavone-3β-D-glucopyranosyl (4″-13′″)-2′″,6′″,10′″,14′″-tetramethyl hexadecane] | inhibited | no negative impact on cell viability | inhibits MMP-9 expression in a dose dependant manner |

From US8207313B2, “Natural products from Vinca” (William Marsh Rice University, priority 2007, dated 2012)
